Results taken from article PMC12339328, “Therapeutic effect and mechanism of gigantol on hyperuricemia” (Frontiers in Endocrinology, 2025).
Where “and” joins values, the source holds several entries; their conditions need not be identical. Identical values can stand only once.

Key:
OAT1 = OAT1 protein expression in HK-2 cells (Western blot); settings: for OAT1 / β (reference protein) ratio / OAT1 protein expression, band value: HK-2, replicates 1-3
GLUT9 [1] = test: GLUT9 protein expression in HK-2 cells (Western blot); settings: for GLUT (GLUT9) / β (reference protein) ratio / GLUT (GLUT9) protein expression, band value: HK-2, replicates 1-3; for GLUT9 protein expression in HK-2 cells: HUA cell model, gigantol 25, 50, 100 µmol/L, especially high-dose (p < 0.001), vs model
GLUT9 [2] = test: GLUT9 protein expression in kidney of HUA mice (Western blot); type: in vivo; settings: gigantol, dose-dependent, vs model group
AML12 cells = test: UA level in AML12 HUA cell model; type: cell-based, mouse; settings: adenosine + XOD induced; gigantol 25, 50, 100 μmol/L; p < 0.001
[3] = test system: liver tissue in mice with HUA; test: Liver histopathology of HUA mice (HE staining); type: in vivo; settings: 200×, gigantol 5, 10, 20 mg/kg
Source text: The kidney and liver tissues were fixed with 4% paraformaldehyde solution. After paraffin embedding and sectioning, the paraffin on the slide was removed with xylene and soaked in different concentrations of ethanol and deionized water. The liver and kidney tissues were stained according to the HE staining procedure, and then the morphology of the kidney tissues and liver tissues was observed under the microscope.

[4] = test system: mice with HUA induced by potassium oxonate; test: Serum and urine UA, CRE and BUN in HUA mice; type: in vivo
Experimental: On day 6, the mice were transferred to a metabolic cage, given free water and diet, and 24-h urine samples were collected for the determination of UA, CRE, and BUN levels. One hour after the last administration, 2 mL of blood was taken through eyeball extraction, and the mice were killed by euthanasia. Mice were dissected and the livers and kidneys were removed.
Blood obtained from mice in each group was centrifuged at 3,000 r/min for 15 min in a low-temperature high-speed centrifuge. Then, the serum was separated, and the levels of UA, CRE, and BUN in the serum were measured by the kits. The levels of TNF-α, IL-1β, IL-6, and NLRP3 in serum were detected by ELISA kits. Liver and kidney tissues were homogenized by adding ice-cold saline, and homogenates were centrifuged at 12,000 r/min for 10 min. XOD activity in the supernatant of the liver tissues was measured, and the levels of TNF-α, IL-1β, IL-6, and NLRP3 in the supernatant of the kidney tissues were measures by ELISA kits.

XOD = settings: HUA mice; each dose of gigantol (5, 10, 20 mg/kg); vs model group; p < 0.01, p < 0.01, p < 0.001
[5] = 24-h urine, after gigantol treatment
[6] = gigantol 5, 10, 20 mg/kg gavage 7 days, vs model group, high dose p < 0.001

Substance: 5-[2-(3-hydroxy-5-methoxyphenyl) ethyl]-2-methoxyphenol [gigantol]
- OAT1 / β (reference protein) ratio (OAT1; 中 = gigantol 50 µmol/L): 1.086 and 1.108 and 1.097
- OAT1 protein expression, band value (OAT1; 中 = gigantol 50 µmol/L): 188.76 and 205.851 and 208.271
- OAT1 / β (reference protein) ratio (OAT1; 低 = gigantol 25 µmol/L): 1.029 and 1.058 and 0.975
- OAT1 protein expression, band value (OAT1; 低 = gigantol 25 µmol/L): 170.32 and 198.69 and 175.271
- OAT1 / β (reference protein) ratio (OAT1; 高 = gigantol 100 µmol/L): 1.06 and 1.0745 and 1.075
- OAT1 protein expression, band value (OAT1; 高 = gigantol 100 µmol/L): 197.371 and 210.308 and 209.271
- OAT1 protein level in HK-2 cells (OAT1; HUA cell model, 50 and 100 µmol/L, vs model group): significantly increased
- OAT1 protein expression in HK-2 cells (OAT1; HUA cell model, gigantol 25, 50, 100 µmol/L, dose-dependent): increase
- GLUT (GLUT9) / β (reference protein) ratio (GLUT9 [1]; 中 = gigantol 50 µmol/L): 0.824 and 0.7786 and 0.7289
- GLUT (GLUT9) protein expression, band value (GLUT9 [1]; 中 = gigantol 50 µmol/L): 143.264 and 144.598 and 138.372
- GLUT (GLUT9) / β (reference protein) ratio (GLUT9 [1]; 低 = gigantol 25 µmol/L): 0.9479 and 0.8166 and 0.8642
- GLUT (GLUT9) protein expression, band value (GLUT9 [1]; 低 = gigantol 25 µmol/L): 156.942 and 153.38 and 155.361
- GLUT (GLUT9) / β (reference protein) ratio (GLUT9 [1]; 高 = gigantol 100 µmol/L): 0.7095 and 0.5035 and 0.629
- GLUT (GLUT9) protein expression, band value (GLUT9 [1]; 高 = gigantol 100 µmol/L): 132.094 and 98.555 and 122.472
- GLUT9 protein expression in HK-2 cells (GLUT9 [1]): significantly decreased
- GLUT9 protein expression in HK-2 cells (GLUT9 [1]; listed as Gigantol): decreased
- GLUT9 protein expression in kidney (GLUT9 [2]): significantly reduced
- UA level in AML12 cells (AML12 cells): suppressed
- liver histopathology [3]: the atrophy of liver cells significantly improved
- urine BUN level [4, 5]: increased
- urine CRE level [4, 5]: increased
- urine UA content ([4]; 24-h urine, gigantol 5, 10, 20 mg/kg gavage, vs model group, p < 0.01): increased significantly in a dose-dependent manner
- serum BUN level [4, 6]: significantly reduced
- serum CRE level [4, 6]: significantly reduced
- serum UA level [4, 6]: significantly reduced
- XOD protein expression in liver (XOD): significantly decreased
